From PMC8607231, “Generation of KS-133 as a Novel Bicyclic Peptide with a Potent and Selective VIPR2 Antagonist Activity that Counteracts Cognitive Decline in a Mouse Model of Psychiatric Disorders” (Frontiers in Pharmacology, 2021)
Where a SMILES comes first, the peptide text is derived from it. Bridges are numbered along the chain shown (N, C = ends). [ ]: non-standard residue; d: D form. Dap = NC[C@H](N)C(=O)O

Legend:
human VIPR1 = target: T1, human VIPR1 (Homo sapiens, UniProt P32241); assay: Calcium influx assay, antagonist activity against VIP-VIPR1 signaling; assay type: cell-based; conditions: ligand VIP (25 nM) at EC80; CHO-K1 cells; n = 4 wells, ± S.E.M; read-out: Ca influx assay [IC50 (nM)] VIPR1
T1 construct: host or cells: CHO-K1
T1 sequence (P32241 31-457): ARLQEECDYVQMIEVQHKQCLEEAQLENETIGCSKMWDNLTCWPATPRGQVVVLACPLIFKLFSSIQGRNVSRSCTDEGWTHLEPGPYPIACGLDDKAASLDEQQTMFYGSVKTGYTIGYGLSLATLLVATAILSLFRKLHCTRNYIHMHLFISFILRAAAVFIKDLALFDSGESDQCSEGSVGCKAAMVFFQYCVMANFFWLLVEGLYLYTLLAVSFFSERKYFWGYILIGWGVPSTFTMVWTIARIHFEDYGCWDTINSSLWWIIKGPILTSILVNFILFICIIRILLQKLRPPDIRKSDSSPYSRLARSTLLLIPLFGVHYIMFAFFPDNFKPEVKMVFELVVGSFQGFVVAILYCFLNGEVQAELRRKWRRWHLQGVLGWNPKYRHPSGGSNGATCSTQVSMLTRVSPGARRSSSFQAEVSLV
Protocol: (§1) Evaluation of antagonist activities of peptides against VIP-VIPR1, VIP-VIPR2, and PACAP-PAC1 signaling pathways and agonistic activity of KS-133 at VIPR2 was carried out by Eurofins DiscoverX (Fremont, CA, United States). Intracellular calcium mobilization was monitored using a calcium-sensitive dye loaded in CHO-K1 cells expressing human VIPR1 (ITEM 86-0030P-2243AN), VIPR2 (ITEM 86-0030P-2244AN), and PAC1 (ITEM 86-0030P-2066AN). The cells were preincubated with antagonistic peptides for 30 min at room temperature in the dark. After addition of the ligand at EC80, calcium mobilization was immediately monitored by FLIPR Tetra for 2 min. Cyclic AMP production in CHO-K1 cells expressing human VIPR2 was evaluated using HitHunter® cAMP assays (antagonist mode: ITEM 86-0007P-2362AN; agonist mode: ITEM 86-0007P-2362AG). The cells were preincubated with antagonistic peptides for 30 min at room temperature. After addition of the ligand at EC80, cells were further incubated for 30 min at room temperature. Cells were lysed and the cAMP content of the cell lysate was determined by the β-galactosidase-based enzyme fragment complementation assay ([Eglen, 2002]). IC50 values were estimated by the following equation: IC50 = 10^[Log(A/B) × (50–D)/(C–D) + Log(B)], where A is the concentration at >50% inhibition, B is the concentration at <50% inhibition, C is the inhibition rate at concertation A, and D is the inhibition rate at concertation B.
(§2) First, the antagonistic activities of parental VIpep-3, KS-132, KS-133 (monocyclic) (no bridging between Lys^7 and Asp^11), and KS-133 against human VIPR1, VIPR2, and PAC1 were evaluated by a calcium influx assay. After antagonistic peptide treatment for 30 min, ligand at a concentration of EC80 was added to the cells and then calcium signaling was measured.
(§3) FIGURE 3 Antagonistic/agonistic activities of peptides in the calcium influx and cAMP assays. For evaluation of the antagonistic activity, the cells were preincubated with antagonistic peptides for 30 min. In the calcium influx assay, after addition of ligand at EC80, calcium mobilization was monitored immediately (see details in the Methods section) (n = 4 wells for each treatment). In the cAMP assay, after a 30 min incubation with the ligand at EC80, cAMP production in cells was measured (see details in the Methods section) (n = 4 wells for each treatment).

human VIPR2 = target: T2, human VIPR2 (Homo sapiens, UniProt P41587); assay: Calcium influx assay, antagonist activity against VIP-VIPR2 signaling; assay type: cell-based; conditions: ligand VIP (150 nM) at EC80; CHO-K1 cells; n = 4 wells, ± S.E.M; read-out: Ca influx assay [IC50 (nM)] VIPR2
T2 construct: host or cells: CHO-K1
T2 sequence (P41587 24-438): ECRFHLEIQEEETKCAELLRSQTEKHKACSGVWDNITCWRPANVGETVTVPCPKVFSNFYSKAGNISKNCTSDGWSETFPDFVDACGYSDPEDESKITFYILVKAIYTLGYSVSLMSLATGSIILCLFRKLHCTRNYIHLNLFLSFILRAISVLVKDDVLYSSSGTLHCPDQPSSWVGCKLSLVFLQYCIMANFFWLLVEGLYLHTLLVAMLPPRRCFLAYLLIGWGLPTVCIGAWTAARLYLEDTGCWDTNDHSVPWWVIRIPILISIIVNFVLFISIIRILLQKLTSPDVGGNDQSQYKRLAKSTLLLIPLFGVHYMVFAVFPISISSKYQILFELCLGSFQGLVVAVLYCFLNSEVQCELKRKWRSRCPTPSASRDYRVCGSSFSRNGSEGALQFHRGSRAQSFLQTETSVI
Protocol: as §1, with “The cells were preincubated with antagonistic peptides for 30 min at room temperature. After addition of the ligand at EC80, cells were further incubated for 30 min at room temperature.” left out, “IC50 values were estimated by the following equation: IC50 = 10^[Log(A/B) × (50–D)/(C–D) + Log(B)], where A is the concentration at >50% inhibition, B is the concentration at <50% inhibition, C is the inhibition rate at concertation A, and D is the inhibition rate at concertation B.” left out
as §2, with “measured. […]” for “measured.”

[1] = Peptide stability in rat plasma (RP-HPLC); assay type: in vitro ADME; conditions: for Stability in rat plasma / RP-HPLC peak area, incubation time 24 h / remaining at 24 h, 0.476 mM: 37°C, 24 h; for RP-HPLC peak area, Input (NT): no plasma treatment; for RP-HPLC peak area, incubation time 24 h / remaining at 24 h, 0.476 mM / RP-HPLC peak area, immediately after mixing / Residual rate, immediately after mixing: rat plasma; for remaining at 24 h, 0.476 mM: read-out: Residual rate, incubation time 24 h
Protocol: Each peptide (10 mM, 1 μl) was incubated with rat plasma (20 μl) prepared in-house. Immediately after mixing with plasma and after 24 h of incubation at 37°C, 80% acetonitrile (200 μl) was added to extract VIpep-3 and acetonitrile (200 μl) was added to extract KS-132, KS-133(monocyclic), and KS-133. The mixture was stored for 10 min on ice and then centrifuged at 20,000 × g for 10 min at 4°C. The supernatant was recovered and directly applied to RP-HPLC to determine the remaining amount of unmodified peptides in the sample.
The stability of peptides was evaluated in rat plasma. A peptide was incubated in rat plasma at 37°C for 0 and 24 h and the remaining amount of peptide was determined by RP-HPLC. By comparison with the peak area of the peptide, the remaining amount of the peptide after plasma incubation was estimated. […] KS-133(monocyclic) may form a pseudo bicyclic structure by ionic bond interaction between side chains of Lys and Asp.

human PAC1 = target: T3, human PAC1 (Homo sapiens, UniProt P41586); assay: Calcium influx assay, antagonist activity against PACAP-PAC1 signaling; assay type: cell-based; conditions: ligand PACAP (35 nM) at EC80; CHO-K1 cells; n = 4 wells, ± S.E.M; read-out: Ca influx assay [IC50 (nM)] PAC1
T3 construct: host or cells: CHO-K1
T3 sequence (P41586 21-468): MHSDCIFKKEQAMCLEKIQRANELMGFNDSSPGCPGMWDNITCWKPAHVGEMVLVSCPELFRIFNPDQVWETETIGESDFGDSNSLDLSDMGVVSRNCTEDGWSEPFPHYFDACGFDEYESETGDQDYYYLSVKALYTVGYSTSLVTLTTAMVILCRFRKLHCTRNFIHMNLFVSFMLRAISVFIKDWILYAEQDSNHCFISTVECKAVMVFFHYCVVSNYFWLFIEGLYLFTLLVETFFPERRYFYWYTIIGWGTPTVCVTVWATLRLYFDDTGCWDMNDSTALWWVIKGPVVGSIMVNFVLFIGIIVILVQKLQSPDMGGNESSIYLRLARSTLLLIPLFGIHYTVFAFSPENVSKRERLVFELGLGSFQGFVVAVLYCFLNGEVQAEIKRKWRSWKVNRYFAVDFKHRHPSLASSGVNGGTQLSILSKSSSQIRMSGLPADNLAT
Protocol: as §1, §2, §3

VIPR2 = test system: VIPR2; parameters: method as in Sakamoto et al. (2018); conditions: versus VIPR1 and PAC1; ref Sakamoto et al. (2018); cited from earlier work

IC50 (human VIPR1) [nM] | IC50 (human VIPR2) [nM] | Stability in rat plasma [1] | RP-HPLC peak area, Input (NT) [1] | RP-HPLC peak area, incubation time 24 h [1] | remaining at 24 h, 0.476 mM [1] [%] | RP-HPLC peak area, immediately after mixing [1] | Residual rate, immediately after mixing [1] [%] | IC50 (human PAC1) [nM] | Structure (SMILES) | Receptor selectivity for VIPR2 compared with the two other receptor subtypes (VIPR2)
> 5000 | 33.4 ± 2.8 | significantly degraded within 24 h | 1460241 | 696652 | 57.8 | 1206247 | 100 | > 5000 | CC[C@H](C)[C@H](NC(=O)[C@H](CC(C)C)NC(=O)[C@H](CN)NC(=O)[C@@H]1CSSC[C@H](NC(C)=O)C(=O)N2CCC[C@H]2C(=O)N2CCC[C@H]2C(=O)N[C@@H](Cc2ccc(O)cc2)C(=O)N[C@@H](CC(C)C)C(=O)N2CCC[C@H]2C(=O)N[C@@H](CN)C(=O)N[C@@H](Cc2ccc(O)cc2)C(=O)N[C@@H](CC(C)C)C(=O)N1)C(N)=O [KS-132, Ac-c(Cys-Pro-Pro-Tyr-Leu-Pro-Dap-Tyr-Leu-Cys)-Dap-Leu-Ile-NH2] (Ac-CPPYLP[Dap]YLC[Dap]LI-NH2; disulfide 1-10) | –
> 5000 | 56 ± 3.9 | also highly stable | 768775 | 724176 | 97.3 | 744262 | 100 | > 5000 | CC[C@H](C)[C@H](NC(=O)[C@H](CC(C)C)NC(=O)[C@H](CC(=O)O)NC(=O)[C@@H]1CSSC[C@H](NC(C)=O)C(=O)N2CCC[C@H]2C(=O)N2CCC[C@H]2C(=O)N[C@@H](Cc2ccc(O)cc2)C(=O)N[C@@H](CC(C)C)C(=O)N2CCC[C@H]2C(=O)N[C@@H](CCCCN)C(=O)N[C@@H](Cc2ccc(O)cc2)C(=O)N[C@@H](CC(C)C)C(=O)N1)C(N)=O [KS-133(monocyclic)] (Ac-CPPYLPKYLCDLI-NH2; disulfide 1-10) | –
> 5000 | – | significantly degraded within 24 h | 1299273 | 95354 | 10.6 | 900813 | 100 | > 5000 | CC(=O)N[C@H]1CSSC[C@@H](C(=O)N[C@H](C(=O)N[C@@H](CC(C)C)C(=O)N[C@@H](CC(C)C)C(=O)N[C@@H](CC(C)C)C(=O)N[C@@H](CCCNC(=N)N)C(=O)N[C@@H](CO)C(=O)O)[C@@H](C)O)NC(=O)[C@H](CC(C)C)NC(=O)[C@H](CCCNC(=N)N)NC(=O)[C@H](CCCNC(=N)N)NC(=O)[C@@H]2CCCN2C(=O)[C@H](CC(C)C)NC(=O)[C@H](Cc2ccc(O)cc2)NC(=O)[C@@H]2CCCN2C(=O)[C@@H]2CCCN2C1=O [VIpep-3, Ac-c(CPPYLPRRLC)TLLLRS-OH, reference compound] (Ac-CPPYLPRRLCTLLLRS-OH; disulfide 1-10) | more than 50 fold
